From patent US11274131B2, “IgM-mediated receptor clustering and cell modulation” (MAYO FOUNDATION FOR MEDICAL EDUCATION AND RESEARCH, priority 2007, dated 2022) come the findings set out here.

The assay has as its system matured human monocyte-derived DC. The assay is described as follows: Antigen uptake assay, matured human DC. The class given is cell-based. To be noted: inhibitor pretreatment before B7-DC XAb. How it is done:
FIGS. 2A to 2G are a series of pictures showing that a kinase activated pathway regulates antibody-induced antigen uptake by matured DC. Matured human monocyte-derived DC were treated with the MTAb B7-DC XAb for varying time periods and evaluated for the phosphorylation status of select signaling pathway intermediates by immunoprecipitation with DAP12 (MC457), Syk (4D10), and PLCγ1 (MC490) reactive antibodies followed by western blot analysis using the phosphotyrosine reactive antibody 4G10 as a probe (FIGS. 2A-2C). Samples of the cells blocked with indicated concentration of piceatannol (FIG. 2D) or with […] of piceatannol (FIG. 2E) were analyzed for phosphorylation of Syk (FIG. 2D) and PLCγ1 (FIG. 2E). To investigate the functional importance of these signaling intermediates in the regulation of antigen uptake by matured DC activated with B7-DC XAb, varying concentrations of pharmacologic inhibitors were used to block the activity of p72Syk (piceatannol) and PLCγ1 (U73122) (FIGS. 2F and 2G, respectively). Antigen uptake was assessed by pulsing cultures with FITC-conjugated ovalbumin and measuring intracellular fluorescence 16 hours later in CD11c positive cells by flow cytometry.
Human DC were generated from peripheral blood CD14^+ monocytes by incubation in GM-CSF and IL-4 for five days. […] All cultures were pulsed with OVA-FITC at the time of treatment with IgM antibodies, and […] OVA-FITC was assessed 24 hours later by flow cytometry.
FIGS. 4A and 4B are a series of plots showing the effects of kinase inhibitors on OVA-FITC uptake by matured human DC, as determined by flow cytometry. […] All cells were pulsed with OVA-FITC at the time of treatment with IgM antibody, and CD11c+ cells were analyzed for OVA-FITC uptake 24 hours later by flow cytometry. […]
Antigen uptake experiments were carried out as described previously (Radhakrishnan et al. (2005) Proc. Natl. Acad. Sci. U.S.A. 102:11438-11443). […] The matured cells were incubated with ovalbumin labeled with FITC or APC and control antibody or B7-DC XAb for two hours, washed and analyzed by FACSCALIBUR™ (Becton Dickinson). […]

On to `CC(C)(C)n1nc(-c2ccc(Cl)cc2)c2c(N)ncnc21` [PP2], for which the “inhibition of B7-DC XAb-induced antigen uptake by matured DC” value is “inhibition of antigen uptake”.
The entry for `COc1ccc2c(c1)CC[C@@H]1[C@@H]2CC[C@]2(C)[C@@H](NCCCCCCN3C(=O)C=CC3=O)CC[C@@H]12` [U73122] is “inhibited uptake of tagged proteins by matured DC in a dose responsive manner”.
